Assay results reported in US11000033B2, “Ketone or oxime compound, and herbicide” (NISSAN CHEMICAL CORPORATION, priority 2014, dated 2021).

Legend:
Type in all cases: in vivo
Scirpus juncoides [1] = assay: Test Example 1: herbicidal activity, application before weed generation in submerged conditions (symbol B); settings: application herbicide amount 320 g/ha
Outline: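 Pre-emergence, paddy conditions: emulsifiable formulation diluted in water, dosed onto floodwater (4 cm depth) on sowing day. Alluvial soil; weeds sown mixed; rice transplanted at 2.5-leaf stage. Greenhouse 25–30 °C, 3 wk. Score 0–5 (5 = ≥90% kill, 0 = ≤5%).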

Veronica persica = assay: Test Example 5: herbicidal effect by foliage application, plastic box (symbol R); settings: 320 g/ha, 3 weeks after application
Outline: (§1)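 Emulsion formulation, diluted with water to the intended rate, was applied uniformly to leaves by small sprayer. Recipients were 14-day greenhouse-grown seedlings (25° C. to 30° C.). Assessment followed at 3 weeks.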

wheat = assay: Test Example 5: effect on crop by foliage application, plastic box (symbol e); settings: 320 g/ha, 3 weeks after application
Outline: (§2)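 Greenhouse test at 25° C. to 30° C. Seeds of crops and weeds were spot-sown in boxes of sterilized diluvial soil under roughly 1.5 cm soil cover, then grown for foliage treatment.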

Galium spurium = assay: Test Example 5: herbicidal effect by foliage application, plastic box (symbol Q); settings: 320 g/ha, 3 weeks after application
Outline: as §1

[2] = test system: Echinochloa oryzacola Vasing.; assay: Test Example 2: herbicidal activity, application during weed generation in submerged conditions (symbol A); settings: Table 23; application herbicide amount 320 g/ha; grade 0-5 by criteria of Test Example 1
Outline: (§3)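 Scoring of herbicidal effect took place 3 weeks after treatment, using the criteria of the earlier test. Treatment was water-surface application of diluted emulsifiable compound at a set dose. Plants were at one- to two-leaf stage in submerged alluvial soil (4 cm depth), greenhouse 25-30° C.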

soybean = assay: Test Example 5: effect on crop by foliage application, plastic box (symbol d); settings: 320 g/ha, 3 weeks after application
Outline: as §2

Scirpus juncoides [3] = assay: Test Example 2: herbicidal activity, application during weed generation in submerged conditions (symbol B); settings: Table 23; application herbicide amount 320 g/ha; grade 0-5 by criteria of Test Example 1
Outline: as §3

Stellaria media = assay: Test Example 4: herbicidal effect by soil treatment (symbol P); settings: application herbicide amount 320 g/ha
Outline: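 Seeds were sown in sterilized diluvial soil, covered with about 1.5 cm of soil, and the soil surface was sprayed with a water-diluted emulsion of the compound at a predetermined rate. Plants grew in a greenhouse at 25° C. to 30° C.; effects were scored visually 3 weeks after application.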

corn = assay: Test Example 4: effect on crop by soil treatment (symbol c); settings: application herbicide amount 320 g/ha
Outline: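 Crop seed is sown in spots together with several weed species in a box of sterilized diluvial soil. It is covered by about 1.5 cm of soil and kept in a greenhouse held between 25° C. and 30° C.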

rice plant = assay: Test Example 5: effect on crop by foliage application, plastic box (symbol b); settings: 320 g/ha, 3 weeks after application
Outline: as §2

Amaranthus retroflexus = assay: Test Example 5: herbicidal effect by foliage application, plastic box (symbol N); settings: 320 g/ha, 3 weeks after application
Outline: as §1

Cyperus difformis = assay: Test Example 3: herbicidal effect by foliage application, Wagner pot (symbol E); settings: application herbicide amount 320 g/ha
Outline: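 Foliar spray of a water-diluted emulsion at a predetermined herbicide amount, applied to 14-day-old plants. Seedlings were raised in flooded alluvial soil (0.1–0.5 cm water) at 25–30 °C in a greenhouse. Injury was rated after 3 weeks against fixed criteria.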

## CON=C(C)CC1CC(OC(=O)N(C)C)=C(c2c(C)cc(C)cc2OC)C1=O (stereo not shown) [6-109]
Scirpus juncoides [1]
  Herbicidal effect grade, B: Scirpus juncoides: 3 (Herbicidal ratio of 40% or higher and lower than 70%)
Veronica persica
  R: Veronica persica, herbicidal effect (criteria of Test Example 1): 1 (Herbicidal ratio of 5% or higher and lower than 20%)
wheat
  e: wheat, effect on crop (criteria of Test Example 1): 4 (Herbicidal ratio of 70% or higher and lower than 90%)
Galium spurium
  Q: Galium spurium, herbicidal effect (criteria of Test Example 1): 0 (Herbicidal ratio of 5% or lower (almost no effect))
[2]
  Herbicidal effect grade, A: Echinochloa oryzacola Vasing.: 5 (Herbicidal ratio of 90% or more (almost completely withered))
soybean
  d: soybean, effect on crop (criteria of Test Example 1): 2 (Herbicidal ratio of 20% or higher and lower than 40%)
Scirpus juncoides [3]
  Herbicidal effect grade, B: Scirpus juncoides: 2 (Herbicidal ratio of 20% or higher and lower than 40%)
Stellaria media
  Herbicidal effect grade, P: Stellaria media: 0 (Herbicidal ratio of 5% or lower (almost no effect))
corn
  Effect on crop grade, c: corn: 0 (Herbicidal ratio of 5% or lower (almost no effect))
Rice plant
  b: directly sowed rice plant, effect on crop (criteria of Test Example 1): 5 (Herbicidal ratio of 90% or more (almost completely withered))
Amaranthus retroflexus
  N: Amaranthus retroflexus, herbicidal effect (criteria of Test Example 1): 4 (Herbicidal ratio of 70% or higher and lower than 90%)

## CON=C(C)CC1CC(O)=C(c2c(F)cc(Br)cc2OC)C1=O (stereo not shown) [6-096]
Scirpus juncoides [1]
  Herbicidal effect grade, B: Scirpus juncoides: 0 (Herbicidal ratio of 5% or lower (almost no effect))
Veronica persica
  R: Veronica persica, herbicidal effect (criteria of Test Example 1): 3 (Herbicidal ratio of 40% or higher and lower than 70%)
wheat
  e: wheat, effect on crop (criteria of Test Example 1): 3 (Herbicidal ratio of 40% or higher and lower than 70%)
Galium spurium
  Q: Galium spurium, herbicidal effect (criteria of Test Example 1): 0 (Herbicidal ratio of 5% or lower (almost no effect))
[2]
  Herbicidal effect grade, A: Echinochloa oryzacola Vasing.: 4 (Herbicidal ratio of 70% or higher and lower than 90%)
Scirpus juncoides [3]
  Herbicidal effect grade, B: Scirpus juncoides: 0 (Herbicidal ratio of 5% or lower (almost no effect))
Stellaria media
  Herbicidal effect grade, P: Stellaria media: 0 (Herbicidal ratio of 5% or lower (almost no effect))
corn
  Effect on crop grade, c: corn: 3 (Herbicidal ratio of 40% or higher and lower than 70%)
Cyperus difformis
  herbicidal effect on E, grade 0-5: 5 (Herbicidal ratio of 90% or more (almost completely withered))

## CON=C(C)CC1CC(O)=C(c2c(F)cc(C)cc2OC)C1=O (stereo not shown) [6-108]
Scirpus juncoides [1]
  Herbicidal effect grade, B: Scirpus juncoides: 3 (Herbicidal ratio of 40% or higher and lower than 70%)
Veronica persica
  R: Veronica persica, herbicidal effect (criteria of Test Example 1): 2 (Herbicidal ratio of 20% or higher and lower than 40%)
wheat
  e: wheat, effect on crop (criteria of Test Example 1): 3 (Herbicidal ratio of 40% or higher and lower than 70%)
Galium spurium
  Q: Galium spurium, herbicidal effect (criteria of Test Example 1): 3 (Herbicidal ratio of 40% or higher and lower than 70%)
[2]
  Herbicidal effect grade, A: Echinochloa oryzacola Vasing.: 4 (Herbicidal ratio of 70% or higher and lower than 90%)
soybean
  d: soybean, effect on crop (criteria of Test Example 1): 3 (Herbicidal ratio of 40% or higher and lower than 70%)
Scirpus juncoides [3]
  Herbicidal effect grade, B: Scirpus juncoides: 1 (Herbicidal ratio of 5% or higher and lower than 20%)
Stellaria media
  Herbicidal effect grade, P: Stellaria media: 3 (Herbicidal ratio of 40% or higher and lower than 70%)
corn
  Effect on crop grade, c: corn: 1 (Herbicidal ratio of 5% or higher and lower than 20%)
Rice plant
  b: directly sowed rice plant, effect on crop (criteria of Test Example 1): 5 (Herbicidal ratio of 90% or more (almost completely withered))
Amaranthus retroflexus
  N: Amaranthus retroflexus, herbicidal effect (criteria of Test Example 1): 5 (Herbicidal ratio of 90% or more (almost completely withered))

## CON=C(C)CC1CC(OC(=O)N2CCOCC2)=C(c2c(C)cc(-c3ccc(Cl)cc3F)cc2C)C1=O (stereo not shown) [6-089]
Scirpus juncoides [1]
  Herbicidal effect grade, B: Scirpus juncoides: 3 (Herbicidal ratio of 40% or higher and lower than 70%)
Veronica persica
  R: Veronica persica, herbicidal effect (criteria of Test Example 1): 4 (Herbicidal ratio of 70% or higher and lower than 90%)
wheat
  e: wheat, effect on crop (criteria of Test Example 1): 4 (Herbicidal ratio of 70% or higher and lower than 90%)
Galium spurium
  Q: Galium spurium, herbicidal effect (criteria of Test Example 1): 3 (Herbicidal ratio of 40% or higher and lower than 70%)
[2]
  Herbicidal effect grade, A: Echinochloa oryzacola Vasing.: 5 (Herbicidal ratio of 90% or more (almost completely withered))
Scirpus juncoides [3]
  Herbicidal effect grade, B: Scirpus juncoides: 2 (Herbicidal ratio of 20% or higher and lower than 40%)
Stellaria media
  Herbicidal effect grade, P: Stellaria media: 0 (Herbicidal ratio of 5% or lower (almost no effect))
corn
  Effect on crop grade, c: corn: 0 (Herbicidal ratio of 5% or lower (almost no effect))
Cyperus difformis
  herbicidal effect on E, grade 0-5: 4 (Herbicidal ratio of 70% or higher and lower than 90%)

## CON=C(C)CC1CC(O)=C(c2c(C)cc(-c3cc(F)c(F)c(F)c3)cc2C)C1=O (stereo not shown) [6-104]
Scirpus juncoides [1]
  Herbicidal effect grade, B: Scirpus juncoides: 5 (Herbicidal ratio of 90% or more (almost completely withered))
Veronica persica
  R: Veronica persica, herbicidal effect (criteria of Test Example 1): 4 (Herbicidal ratio of 70% or higher and lower than 90%)
wheat
  e: wheat, effect on crop (criteria of Test Example 1): 5 (Herbicidal ratio of 90% or more (almost completely withered))
Galium spurium
  Q: Galium spurium, herbicidal effect (criteria of Test Example 1): 4 (Herbicidal ratio of 70% or higher and lower than 90%)
[2]
  Herbicidal effect grade, A: Echinochloa oryzacola Vasing.: 5 (Herbicidal ratio of 90% or more (almost completely withered))
soybean
  d: soybean, effect on crop (criteria of Test Example 1): 3 (Herbicidal ratio of 40% or higher and lower than 70%)
Scirpus juncoides [3]
  Herbicidal effect grade, B: Scirpus juncoides: 5 (Herbicidal ratio of 90% or more (almost completely withered))
Stellaria media
  Herbicidal effect grade, P: Stellaria media: 3 (Herbicidal ratio of 40% or higher and lower than 70%)
corn
  Effect on crop grade, c: corn: 5 (Herbicidal ratio of 90% or more (almost completely withered))
Rice plant
  b: directly sowed rice plant, effect on crop (criteria of Test Example 1): 5 (Herbicidal ratio of 90% or more (almost completely withered))
Amaranthus retroflexus
  N: Amaranthus retroflexus, herbicidal effect (criteria of Test Example 1): 5 (Herbicidal ratio of 90% or more (almost completely withered))

## CON=C(C)CC1CC(OC(=O)N2CCCCC2)=C(c2c(C)cc(C)cc2OC)C1=O (stereo not shown) [6-111]
Scirpus juncoides [1]
  Herbicidal effect grade, B: Scirpus juncoides: 5 (Herbicidal ratio of 90% or more (almost completely withered))
Veronica persica
  R: Veronica persica, herbicidal effect (criteria of Test Example 1): 2 (Herbicidal ratio of 20% or higher and lower than 40%)
wheat
  e: wheat, effect on crop (criteria of Test Example 1): 4 (Herbicidal ratio of 70% or higher and lower than 90%)
Galium spurium
  Q: Galium spurium, herbicidal effect (criteria of Test Example 1): 0 (Herbicidal ratio of 5% or lower (almost no effect))
[2]
  Herbicidal effect grade, A: Echinochloa oryzacola Vasing.: 5 (Herbicidal ratio of 90% or more (almost completely withered))
soybean
  d: soybean, effect on crop (criteria of Test Example 1): 1 (Herbicidal ratio of 5% or higher and lower than 20%)
Scirpus juncoides [3]
  Herbicidal effect grade, B: Scirpus juncoides: 3 (Herbicidal ratio of 40% or higher and lower than 70%)
Stellaria media
  Herbicidal effect grade, P: Stellaria media: 0 (Herbicidal ratio of 5% or lower (almost no effect))
corn
  Effect on crop grade, c: corn: 0 (Herbicidal ratio of 5% or lower (almost no effect))
Rice plant
  b: directly sowed rice plant, effect on crop (criteria of Test Example 1): 5 (Herbicidal ratio of 90% or more (almost completely withered))
Amaranthus retroflexus
  N: Amaranthus retroflexus, herbicidal effect (criteria of Test Example 1): 2 (Herbicidal ratio of 20% or higher and lower than 40%)

## CON=C(C)CC1CC(O)=C(c2c(C)cc(-c3ccsc3)cc2C)C1=O (stereo not shown) [6-106]
Scirpus juncoides [1]
  Herbicidal effect grade, B: Scirpus juncoides: 5 (Herbicidal ratio of 90% or more (almost completely withered))
Veronica persica
  R: Veronica persica, herbicidal effect (criteria of Test Example 1): 3 (Herbicidal ratio of 40% or higher and lower than 70%)
wheat
  e: wheat, effect on crop (criteria of Test Example 1): 3 (Herbicidal ratio of 40% or higher and lower than 70%)
Galium spurium
  Q: Galium spurium, herbicidal effect (criteria of Test Example 1): 3 (Herbicidal ratio of 40% or higher and lower than 70%)
[2]
  Herbicidal effect grade, A: Echinochloa oryzacola Vasing.: 5 (Herbicidal ratio of 90% or more (almost completely withered))
soybean
  d: soybean, effect on crop (criteria of Test Example 1): 1 (Herbicidal ratio of 5% or higher and lower than 20%)
Scirpus juncoides [3]
  Herbicidal effect grade, B: Scirpus juncoides: 5 (Herbicidal ratio of 90% or more (almost completely withered))
Stellaria media
  Herbicidal effect grade, P: Stellaria media: 0 (Herbicidal ratio of 5% or lower (almost no effect))
corn
  Effect on crop grade, c: corn: 0 (Herbicidal ratio of 5% or lower (almost no effect))
Rice plant
  b: directly sowed rice plant, effect on crop (criteria of Test Example 1): 3 (Herbicidal ratio of 40% or higher and lower than 70%)
Amaranthus retroflexus
  N: Amaranthus retroflexus, herbicidal effect (criteria of Test Example 1): 0 (Herbicidal ratio of 5% or lower (almost no effect))
